Measurements published in US20210115494A1, “Improved method for measurement of microbial biomass” (Mycometer A/S, priority 2018, published 2021).

What was measured:
Assay type in all cases: biochemical
[1] = tested on: NAHA activity from Ambrosia psilostachya (Rag weed pollen); experiment: NAHA activity assay, rag weed pollen
Description: (§1) In order to determine NAHA activity in different samples, the technology in WO 98/033934 was employed: A sample containing a dried or freeze dried organism is added to a buffer solution containing 4-Methylumbelliferyl N-acetyl-β-D-glucosaminide in a concentration of 20 μM. The reaction-time is varied depending on the ambient temperature and according to a reaction-time/temperature data sheet previously developed for fungal NAHA activity at various temperatures, and is 30 minutes at 23° C. The resulting fluorescence formed during the reaction time is monitored in a calibrated fluorometer.
(§2) Experiments were conducted where varying concentrations of AgNO3 was added to an analysis substrate. Furthermore, the experiments where performed on dried or freeze dried materials where both intact and fragmented cells are to be expected to be present.
(§3) Experiments analogous to those in example 1 were carried out, but instead of using non-specific inhibitors, the effect of different concentrations of DNJNAc on the NAHA activity in various biomass containing samples was investigated.

[2] = tested on: NAHA activity from Cat dander; experiment: NAHA activity assay, cat dander
Description: as §1, §2, §3

[3] = tested on: NAHA activity from Human skin cells; experiment: NAHA activity assay, human skin cells
Description: as §1, §2, §3

[4] = tested on: NAHA activity from Mugworth pollen; experiment: NAHA activity assay, mugworth pollen
Description: as §1, §2, §3

[5] = tested on: NAHA activity from Lepidoglyphus destructor (Storage mite); experiment: NAHA activity assay, storage mite; conditions: Lepidoglyphus destructor (Storage mite)
Description: as §1, §2, §3

[6] = tested on: NAHA activity from Grass pollen; experiment: NAHA activity assay, grass pollen; conditions: Grass pollen
Description: as §1, §2, §3

[7] = tested on: NAHA activity from Dermatophagoides pteronyssinus (Dust mite); experiment: NAHA activity assay, dust mite; conditions: Dermatophagoides pteronyssinus (House dust mite)
Description: as §1, §2, §3

[8] = tested on: NAHA activity from Birch pollen; experiment: NAHA activity assay, birch pollen; conditions: Birch sollen
Description: as §1, §2, §3

[9] = tested on: NAHA activity from Aspergillus fumigatus freeze dried; experiment: NAHA activity assay, Aspergillus fumigatus freeze dried; conditions: Aspergillus fumigatus (Freeze dried)
Description: as §1, §2, §3

[10] = tested on: NAHA activity from Acremonium spp.; experiment: NAHA activity assay, Acremonium spp.; conditions: Acremonium sp.
Description: as §1, §2, §3

[11] = tested on: NAHA activity from Penicillium crysogenum; experiment: NAHA activity assay, Penicillium crysogenum; conditions: Penicillium chrysogenum
Description: as §1, §2, §3

[12] = tested on: NAHA activity from Cladosporium sphaerospermum; experiment: NAHA activity assay, Cladosporium sphaerospermum; conditions: Chladosporium sphaerosperm
Description: as §1, §2, §3

[13] = tested on: NAHA activity from Fusarium culmorum; experiment: NAHA activity assay, Fusarium culmorum
Description: as §1, §2, §3

[14] = tested on: NAHA activity from Mucor hiemalis; experiment: NAHA activity assay, Mucor hiemalis
Description: as §1, §2, §3

[15] = tested on: NAHA activity from Stachybotrys chartarum; experiment: NAHA activity assay, Stachybotrys chartarum
Description: as §1, §2, §3

[16] = tested on: NAHA activity from Aureobasidium pullulans; experiment: NAHA activity assay, Aureobasidium pullulans
Description: as §1, §2, §3

[17] = tested on: NAHA activity from Rhizopus stolonifer; experiment: NAHA activity assay, Rhizopus stolonifer
Description: as §1, §3

[18] = tested on: NAHA activity from Chaetomium globosum; experiment: NAHA activity assay, Chaetomium globosum
Description: as §1, §3

[19] = tested on: NAHA activity from Alternaria tenuissima; experiment: NAHA activity assay, Alternaria tenuissima
Description: as §1, §3

[20] = tested on: NAHA activity from Trichoderma harzianum; experiment: NAHA activity assay, Trichoderma harzianum
Description: as §1, §3

[21] = tested on: NAHA activity from Penicillium commune; experiment: NAHA activity assay, Penicillium commune
Description: as §1, §3

non-fungal NAHA activity = experiment: NAHA activity assay, non-fungal sources overall
Description: as §1, §2, §3

For `CC(=O)N[C@H]1CN[C@H](CO)[C@@H](O)[C@@H]1O` [DNJNAc, 2-Acetamido-1,2-dideoxynojirimycin], the “NAHA activity, 0 μM DNJNAc = 100%” value ([1]; DNJNAc 24.5 μM) was 8%, the “NAHA activity, 0 μM DNJNAc = 100%” value ([1]; DNJNAc 49 μM) was 6% and the “NAHA activity, 0 μM DNJNAc = 100%” value ([1]; DNJNAc 98 μM) was 5%. For the same compound, the “NAHA activity, 0 μM DNJNAc = 100%” value ([1]; DNJNAc 196 μM) was 4%, the “NAHA activity, 0 μM DNJNAc = 100%” value ([2]; DNJNAc 24.5 μM) was 7% and the “NAHA activity, 0 μM DNJNAc = 100%” value ([2]; DNJNAc 49 μM) was 5%. For the same compound, the “NAHA activity, 0 μM DNJNAc = 100%” value ([2]; DNJNAc 98 μM) was 3%, the “NAHA activity, 0 μM DNJNAc = 100%” value ([2]; DNJNAc 196 μM) was 2% and the “NAHA activity, 0 μM DNJNAc = 100%” value ([3]; DNJNAc 24.5 μM) was 3%. For the same compound, the “NAHA activity, 0 μM DNJNAc = 100%” value ([3]; DNJNAc 49 μM) was 1%, the “NAHA activity, 0 μM DNJNAc = 100%” value ([3]; DNJNAc 98 μM) was 1% and the “NAHA activity, 0 μM DNJNAc = 100%” value ([3]; DNJNAc 196 μM) was 1%. For the same compound, the “NAHA activity, 0 μM DNJNAc = 100%” value ([4]; DNJNAc 24.5 μM) was 8%, the “NAHA activity, 0 μM DNJNAc = 100%” value ([4]; DNJNAc 49 μM) was 6% and the “NAHA activity, 0 μM DNJNAc = 100%” value ([4]; DNJNAc 98 μM) was 5%. The “NAHA activity, 0 μM DNJNAc = 100%” value ([4]; DNJNAc 196 μM) was 4%, the “NAHA activity, 0 μM DNJNAc = 100%” value ([5]; DNJNAc 24.5 μM) was 3% and the “NAHA activity, 0 μM DNJNAc = 100%” value ([5]; DNJNAc 49 μM) was 2%. The “NAHA activity, 0 μM DNJNAc = 100%” value ([5]; DNJNAc 98 μM) was 1%, the “NAHA activity, 0 μM DNJNAc = 100%” value ([5]; DNJNAc 196 μM) was 0% and the “NAHA activity, 0 μM DNJNAc = 100%” value ([6]; DNJNAc 24.5 μM) was 41%. The “NAHA activity, 0 μM DNJNAc = 100%” value ([6]; DNJNAc 49 μM) was 37%, the “NAHA activity, 0 μM DNJNAc = 100%” value ([6]; DNJNAc 98 μM) was 30% and the “NAHA activity, 0 μM DNJNAc = 100%” value ([6]; DNJNAc 196 μM) was 20%. The “NAHA activity, 0 μM DNJNAc = 100%” value ([7]; DNJNAc 24.5 μM) was 5%, the “NAHA activity, 0 μM DNJNAc = 100%” value ([7]; DNJNAc 49 μM) was 2% and the “NAHA activity, 0 μM DNJNAc = 100%” value ([7]; DNJNAc 98 μM) was 1%. The “NAHA activity, 0 μM DNJNAc = 100%” value ([7]; DNJNAc 196 μM) was 1%, the “NAHA activity, 0 μM DNJNAc = 100%” value ([8]; DNJNAc 24.5 μM) was 10% and the “NAHA activity, 0 μM DNJNAc = 100%” value ([8]; DNJNAc 49 μM) was 9%. For the same compound, the “NAHA activity, 0 μM DNJNAc = 100%” value ([8]; DNJNAc 98 μM) was 8%, the “NAHA activity, 0 μM DNJNAc = 100%” value ([8]; DNJNAc 196 μM) was 9% and the “NAHA activity, 0 μM DNJNAc = 100%” value ([9]; DNJNAc 24.5 μM) was 114%. The “NAHA activity, 0 μM DNJNAc = 100%” value ([9]; DNJNAc 49 μM) was 105%, the “NAHA activity, 0 μM DNJNAc = 100%” value ([9]; DNJNAc 98 μM) was 104% and the “NAHA activity, 0 μM DNJNAc = 100%” value ([9]; DNJNAc 196 μM) was 96%. For the same compound, the “NAHA activity, 0 μM DNJNAc = 100%” value ([10]; DNJNAc 24.5 μM) was 99%, the “NAHA activity, 0 μM DNJNAc = 100%” value ([10]; DNJNAc 49 μM) was 92% and the “NAHA activity, 0 μM DNJNAc = 100%” value ([10]; DNJNAc 98 μM) was 80%. For the same compound, the “NAHA activity, 0 μM DNJNAc = 100%” value ([10]; DNJNAc 196 μM) was 76%, the “NAHA activity, 0 μM DNJNAc = 100%” value ([11]; DNJNAc 24.5 μM) was 89% and the “NAHA activity, 0 μM DNJNAc = 100%” value ([11]; DNJNAc 49 μM) was 86%. For the same compound, the “NAHA activity, 0 μM DNJNAc = 100%” value ([11]; DNJNAc 98 μM) was 74%, the “NAHA activity, 0 μM DNJNAc = 100%” value ([11]; DNJNAc 196 μM) was 76% and the “NAHA activity, 0 μM DNJNAc = 100%” value ([12]; DNJNAc 24.5 μM) was 43%. For the same compound, the “NAHA activity, 0 μM DNJNAc = 100%” value ([12]; DNJNAc 49 μM) was 32%, the “NAHA activity, 0 μM DNJNAc = 100%” value ([12]; DNJNAc 98 μM) was 49% and the “NAHA activity, 0 μM DNJNAc = 100%” value ([12]; DNJNAc 196 μM) was 21%. For the same compound, the “NAHA activity, 0 μM DNJNAc = 100%” value ([13]; DNJNAc 24.5 μM) was 85%, the “NAHA activity, 0 μM DNJNAc = 100%” value ([13]; DNJNAc 49 μM) was 82% and the “NAHA activity, 0 μM DNJNAc = 100%” value ([13]; DNJNAc 98 μM) was 98%. For the same compound, the “NAHA activity, 0 μM DNJNAc = 100%” value ([13]; DNJNAc 196 μM) was 95%, the “NAHA activity, 0 μM DNJNAc = 100%” value ([14]; DNJNAc 24.5 μM) was 58% and the “NAHA activity, 0 μM DNJNAc = 100%” value ([14]; DNJNAc 49 μM) was 37%. For the same compound, the “NAHA activity, 0 μM DNJNAc = 100%” value ([14]; DNJNAc 98 μM) was 45%, the “NAHA activity, 0 μM DNJNAc = 100%” value ([14]; DNJNAc 196 μM) was 25% and the “NAHA activity, 0 μM DNJNAc = 100%” value ([15]; DNJNAc 24.5 μM) was 90%. For the same compound, the “NAHA activity, 0 μM DNJNAc = 100%” value ([15]; DNJNAc 98 μM) was 97%, the “NAHA activity, 0 μM DNJNAc = 100%” value ([15]; DNJNAc 196 μM) was 85% and the “NAHA activity, 0 μM DNJNAc = 100%” value ([16]; DNJNAc 24.5 μM) was 56%. For the same compound, the “NAHA activity, 0 μM DNJNAc = 100%” value ([16]; DNJNAc 49 μM) was 67%, the “NAHA activity, 0 μM DNJNAc = 100%” value ([16]; DNJNAc 98 μM) was 50% and the “NAHA activity, 0 μM DNJNAc = 100%” value ([16]; DNJNAc 196 μM) was 27%. The “NAHA activity, 0 μM DNJNAc = 100%” value ([17]; DNJNAc 24.5 μM) was 46%, the “NAHA activity, 0 μM DNJNAc = 100%” value ([17]; DNJNAc 49 μM) was 32% and the “NAHA activity, 0 μM DNJNAc = 100%” value ([17]; DNJNAc 98 μM) was 23%. For the same compound, the “NAHA activity, 0 μM DNJNAc = 100%” value ([17]; DNJNAc 196 μM) was 18%, the “NAHA activity, 0 μM DNJNAc = 100%” value ([18]; DNJNAc 24.5 μM) was 88% and the “NAHA activity, 0 μM DNJNAc = 100%” value ([18]; DNJNAc 49 μM) was 91%. The “NAHA activity, 0 μM DNJNAc = 100%” value ([18]; DNJNAc 98 μM) was 92%, the “NAHA activity, 0 μM DNJNAc = 100%” value ([18]; DNJNAc 196 μM) was 81% and the “NAHA activity, 0 μM DNJNAc = 100%” value ([19]; DNJNAc 24.5 μM) was 72%. For the same compound, the “NAHA activity, 0 μM DNJNAc = 100%” value ([19]; DNJNAc 49 μM) was 79%, the “NAHA activity, 0 μM DNJNAc = 100%” value ([19]; DNJNAc 98 μM) was 58% and the “NAHA activity, 0 μM DNJNAc = 100%” value ([19]; DNJNAc 196 μM) was 48%. For the same compound, the “NAHA activity, 0 μM DNJNAc = 100%” value ([20]; DNJNAc 24.5 μM) was 120%, the “NAHA activity, 0 μM DNJNAc = 100%” value ([20]; DNJNAc 49 μM) was 93% and the “NAHA activity, 0 μM DNJNAc = 100%” value ([20]; DNJNAc 98 μM) was 92%. The “NAHA activity, 0 μM DNJNAc = 100%” value ([20]; DNJNAc 196 μM) was 83%, the “NAHA activity, 0 μM DNJNAc = 100%” value ([21]; DNJNAc 24.5 μM) was 76% and the “NAHA activity, 0 μM DNJNAc = 100%” value ([21]; DNJNAc 49 μM) was 62%. The “NAHA activity, 0 μM DNJNAc = 100%” value ([21]; DNJNAc 98 μM) was 45%, the “NAHA activity, 0 μM DNJNAc = 100%” value ([21]; DNJNAc 196 μM) was 22% and the “non fungal activity retained, average” value (non-fungal NAHA activity; 24.5 μM in the assay substrate) was 11%. The “non-fungal NAHA activity retained, average of the control” value (non-fungal NAHA activity; 196 μM) was 5%.
